Measurements: patent US20090298903A1, “USE OF TETRAMIC ACID DERIVATIVES FOR INSECT CONTROL” (priority 2006, published 2009)

Experiments:
Format in all cases: in vivo
Ceutorhynchus napi = assay: Example 26-A: oilseed rape against Ceutorhynchus napi; details: 55 d after treatment, larvae, Deltamethrin (25 EC) 5, (I-4) (+ 0.2% rapeseed oil methyl ester) 72, Thiacloprid (OD 240) 72, Lambda-cyhalothrin 5 g a.s./ha
Method: Plots approx. 25 m^2 in size which are planted with oilseed rape cv. “Artus” are treated, in four replications, against Ceutorhynchus napi. The application is carried out with a motor-operated knapsack sprayer. Here, the active substance Example (I-4), in a tank mix with 0.2% a.s. rapeseed oil methyl ester (500 EW) and the commercial standards Deltamethrin (25 EC), lambda-cyhalothrin (S100) and Thiacloprid (OD 240), is tested at the specified application rates. The water application rate is 250 l/ha.
The test is evaluated 55 days after the treatment by scoring the destruction rate of the larvae on the plants.

Rhagoletis cerasi = assay: Example 21: cherry trees against Rhagoletis cerasi; details: 23 d after treatment 2, larvae on fruits, Dimethoate (400 EC) 200, (I-4) (150 OD) 75 g a.s./ha/m crown level
Method: Cherry trees cv. “Van” which are approximately 26 years old are treated, in three replications, against Rhagoletis cerasi. The application is carried out with an atomizer. Here, the active substance Example (I-4) (150 OD) and the commercial standard dimethoate (400 EC) are applied at the specified application rates. Two applications are carried out at an interval of 6 days with a water application rate of 500 l/ha/m crown level.
The test is evaluated 23 days after treatment 2 by scoring the destruction rates of the animals (larvae) on the fruits with the aid of the Abbott formula.

Dacus ciliatus = assay: Example 22A: bottle gourds against Dacus ciliatus
Method: Plots approx. 10 m^2 in size which are planted with bottle gourds cv. “Waltham” are treated, in three replications, against Dacus ciliatus. The application is carried out with a motor-operated knapsack sprayer. Here, the active substance Example (I-4) (150 OD) and the commercial standard Fenthion (500 EC) are tested at the specified application rates. Three applications are carried out at in each case an interval of 7 days. The water application rate is approx. 500 l/ha.
The test is evaluated 8, 14 and 21 days after treatment 1 by scoring the infestation of the fruits.

[1] = system: Anthonomus pomorum, the apple blossom weevil; assay: Example 26B: apple trees against apple blossom weevil; details: 22 d after treatment, larvae on inflorescences, Thiacloprid (SC 480) 48 + Deltamethrin 3.75 tank mix, (I-4) (150 OD) 48 g a.s./ha/m crown level
Method: Apple trees cv. “Holsteiner Cox” in plots approx. 20 m^2 in size are treated, in 4 replications, against Anthonomus pomorum, the apple blossom weevil. Here, the active substance Example (I-4) (150 OD) at the specified application rate is tested against a tank mix of the commercial standards Thiacloprid (SC 480) and Deltamethrin-liquid in the specified application rates. The application is carried out with a knapsack sprayer. Here, the treatment is effected with a water application rate of 500 l/ha/m crown level.
The test is evaluated 22 days after the treatment by scoring the destruction of the larvae on the inflorescences with the aid of the Abbott method.

Ceratitis capitata = assay: Example 20: peach trees against Ceratitis capitata; details: animals on fruits
Method: Peach trees cv. “Oom Sarel” which are approximately 10 years old are treated, in three replications, against Ceratitis capitata. The application is carried out with a high-pressure sprayer or a knapsack sprayer which is operated with pressurized air. Here, the active substance Example (I-4) (150 OD) and the commercial standard Fenthion (500 EC) are tested at the specified application rates. The water application rate is 2500 l/ha. Three applications are carried out at an interval of 7 and 19 days, respectively.
The test is evaluated 9 and 16 days after treatment 3 by scoring the destruction rate of the animals on the fruits with the aid of the Abbott formula.

[2] = system: Frankliniella occidentalis; assay: Example 5: aubergines against Frankliniella occidentalis; details: mixed populations on leaves
Method: Plots 6 m^2 in size which are planted with aubergines cv. “Soraya” are treated, in three replications, against Frankliniella occidentalis. The application is effected with a motor-operated knapsack sprayer. Here, the active substances Example (I-4) (240 SC) and Example (I-9) (240 SC), in a tank mix together with 0.1% a.s. rapeseed oil methyl ester (500 EW) and the commercial standard Spinosad (480 SC), are tested at the specified application rates. The water application rate is 1500 l/ha.
The test is evaluated 25, 32 and 39 days after the treatment by scoring the destruction rate of the mixed populations on the leaves.

[3] = system: oriental fruit moth (Laspeyresia molesta); assay: Example 28: peach trees against oriental fruit moth; details: 41 d after treatment, Pyrifroxyfen (35 WP) 123, Acetamiprid (30 SG) 168, (I-4) (150 OD) 153 g a.s./ha
Method: Approx. 10-year-old peach trees are treated, in four replications, against the oriental fruit moth (Laspeyresia molesta). The application is carried out with a knapsack sprayer which is operated with pressurized air. Here, the active substance (I-4) (150 OD) is tested against the commercial standards Pyriproxyfen (35 WP) and Acetamiprid (30 SG) at the specified application rates. The water application rate is 935 l/ha.
The test is evaluated 41 days after the treatment by scoring the destruction rate of the animals on the trees.

Thrips tabaci = assay: Example 11: dwarf beans against Thrips tabaci
Method: Plots approx. 26 m^2 in size which are planted with dwarf beans are treated 16 days after emergence against Thrips tabaci, in four replications. The application is carried out with a knapsack sprayer which is operated with pressurized air. Here, the active substances Example (I-2) (240 SC) (I-4) (240 SC) and Example (I-9) (240 SC), in a tank mix with 0.1% a.s. rapeseed oil methyl ester (500 EW), are tested against the commercial standard Profenofos (720 EC) at the specified application rates. The water application rate is 1000 l/ha. Two applications are carried out at an interval of 10 days.
The test is evaluated 5 and 11 days after the first treatment by scoring the destruction rate of the nymphs on the leaves.

In the case of `CCOC(=O)OC1=C(c2cc(C)ccc2C)C(=O)N[C@]12CC[C@@H](OC)CC2` [Example (I-4)], the “Efficacy (% Abbott) 55 d” value (Ceutorhynchus napi) is reported as 74.3 % Abbott, the “Efficacy (% Abbott) 23 d” value (Rhagoletis cerasi) is reported as 100 % Abbott and the “Efficacy (% Abbott) 8 d” value (Dacus ciliatus; 8 d after treatment 1, infestation of fruits, Fenthion (500 EC) 300, (I-4) (150 OD) 200 g a.s./ha, three applications, 7-day intervals) is reported as 59.5 % Abbott. The “Efficacy (% Abbott) 14 d” value (Dacus ciliatus; 14 d after treatment 1, Fenthion 300, (I-4) 200 g a.s./ha) was 48.9 % Abbott, the “Efficacy (% Abbott) 21 d” value (Dacus ciliatus; 21 d after treatment 1, Fenthion 300, (I-4) 200 g a.s./ha) was 44.5 % Abbott and the “Efficacy (%) Abbott 22 d” value [1] was 88%. The “Efficacy (% Abbott) 16 d after treatment 3” value (Ceratitis capitata; Fenthion 1700, (I-4) 100 g a.s./ha) was 100 % Abbott, the “Efficacy (% Abbott) 9 d after treatment 3” value (Ceratitis capitata; Fenthion (500 EC) 1700, (I-4) (150 OD) 100 g a.s./ha) was 86.7 % Abbott and the “Efficacy (% Abbott) 25 d” value ([2]; 25 d after treatment, Spinosad (480 SC) 0.012, (I-9) 0.0054, (I-4) 0.012 % a.s., 240 SC + 0.1% rapeseed oil methyl ester) was 92.1 % Abbott. For the same compound, the “Efficacy (% Abbott) 32 d” value ([2]; 32 d after treatment, Spinosad 0.012, (I-9) 0.0054, (I-4) 0.012 % a.s.) was 88.3 % Abbott, the “Efficacy (% Abbott) 39 d” value ([2]; 39 d after treatment, Spinosad 0.012, (I-9) 0.0054, (I-4) 0.012 % a.s.) was 89.7 % Abbott and the “Efficacy (% Abbott) 41 d” value [3] was 48.1 % Abbott. The “Efficacy (% Abbott) 5 d” value (Thrips tabaci; 5 d after first treatment, nymphs on leaves, Profenofos (720 EC) 1300, (I-9) 54, (I-2) 54, (I-4) 60 g a.s./ha, 240 SC + 0.1% rapeseed oil methyl ester) was 60 % Abbott and the “Efficacy (% Abbott) 11 d” value (Thrips tabaci; 11 d after first treatment (second application at 10 days), Profenofos 1300, (I-9) 54, (I-2) 54, (I-4) 60 g a.s./ha) was 90 % Abbott.
